Measurements as given in patent publication US7208512B2, “Benzodifuranimidazoline and benzofuranimidazoline derivatives and their use for the treatment of glaucoma” (Alcon, Inc., priority 2001, dated 2007).

Assays:
5-HT2 receptor [1] = target: T1, 5-HT2 receptor (Rattus norvegicus, UniProt P14842); assay: 5-HT2 receptor binding assay ([125I]DOI competition, rat cerebral cortex homogenates)
Procedure: Aliquots of post mortem rat cerebral cortex homogenates (400 μl) dispersed in 50 mM TrisHCl buffer (pH 7.4) are incubated with [^125I]DOI (80 pM final) in the absence or presence of methiothepin (10 μM final) to define total and non-specific binding, respectively, in a total volume of 0.5 ml. The assay mixture is incubated for 1 hour at 23° C. in polypropylene tubes and the assays terminated by rapid vacuum filtration over Whatman GF/B glass fiber filters previously soaked in 0.3% polyethyleneimine using ice-cold buffer. Test compounds (at different concentrations) are substituted for methiothepin. Filter-bound radioactivity is determined by scintillation spectrometry on a beta counter. The data are analyzed using a non-linear, iterative curve-fitting computer program (Bowen et al. 1995) to determine the compound affinity parameter.

5-HT2 receptor [2] = target: T1, 5-HT2 receptor; assay: 5-HT2 functional assay: phosphoinositide (PI) turnover in A7r5 rat vascular smooth muscle cells; assay type: cell-based; set-up: A7r5 rat vascular smooth muscle cells; endogenous in cells; host or cells: A7r5 rat vascular smooth muscle cells; conditions: [3H]-IPs production in A7r5 cells
Procedure: The relative agonist activity of serotonergic compounds at the 5-HT2 receptor can be determined in vitro using the ability of the compounds to stimulate the production of [^3H]inositol phosphates in [^3H]myo-inositol-labeled A7r5 rat vascular smooth muscle cells by their ability to activate the enzyme phospholipase C. These cells are grown in culture plates, maintained in a humidified atmosphere of 5% CO2 and 95% air and fed semi-weekly with Dulbecco's modified Eagle medium (DMEM) containing 4.5 g/l glucose and supplemented with 2 mM glutamine, 10 μg/ml gentamicin, and 10% fetal bovine serum. […] Confluent cells are exposed for 24–30 hrs to 1.5 μCi [^3H]-myo-inositol (18.3 Ci/mmol) in 0.5 ml of serum-free medium. Cells are then rinsed once with DMEM/F-12 containing 10 mM LiCl prior to incubation with the test agent (or solvent as the control) in 1.0 ml of the same medium for 1 hr at 37° C., after which the medium is aspirated and 1 ml of cold 0.1 M formic acid added to stop the reaction. […] The eluate (4 ml) is collected, mixed with 15 ml scintillation fluid, and the total [^3H]-IPs determined by scintillation counting on a beta-counter. Concentration-response data are analyzed by the sigmoidal fit function of the Origin Scientific Graphics software (Microcal Software, Northampton, Mass.) to determine agonist potency (EC50 value) and efficacy (Emax). […]

T1 sequence (P14842 whole entry): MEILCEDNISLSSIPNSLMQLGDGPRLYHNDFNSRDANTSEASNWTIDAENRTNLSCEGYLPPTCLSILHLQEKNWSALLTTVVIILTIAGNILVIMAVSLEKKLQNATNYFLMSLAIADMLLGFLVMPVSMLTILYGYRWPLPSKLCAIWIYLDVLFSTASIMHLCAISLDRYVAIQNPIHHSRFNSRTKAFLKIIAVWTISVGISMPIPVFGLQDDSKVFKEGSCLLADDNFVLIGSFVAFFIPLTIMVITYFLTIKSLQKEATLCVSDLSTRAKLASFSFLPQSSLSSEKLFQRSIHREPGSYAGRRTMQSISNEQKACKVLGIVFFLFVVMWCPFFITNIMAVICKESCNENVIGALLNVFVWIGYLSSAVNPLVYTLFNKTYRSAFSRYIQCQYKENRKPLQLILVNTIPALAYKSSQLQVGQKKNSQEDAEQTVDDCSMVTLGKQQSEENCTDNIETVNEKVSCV

COc1cc(C[C@@H](C)N)c(OC)cc1I [(R)-DOI, reference compound]
IC50 (5-HT2 receptor [1]): 0.46 nM
EC50 (5-HT2 receptor [2]): 277 nM
